{
  "source": "patent EP4417607A1",
  "about": "“HETEROCYCLIC COMPOUND AS SOS1 INHIBITOR AND USES THEREOF” (Nanjing Zaiming Pharmaceutical Co., Ltd., priority 2021, dated 2023)",
  "tested_on": "H358-SOS2 KO cells",
  "experiment": "H358-SOS2 KO cell proliferation inhibition (CellTiter-Glo, 3D methylcellulose)",
  "type": "cell-based",
  "conditions": "192 h, 8 days, CTG",
  "method": "The effect of the compounds of the present invention on the proliferation of H358 cells with knockout of SOS2 (H358-SOS2 KO, Kyinno Biotechnology Co., Ltd.) was assessed by CellTiter-Glo luminescent cell viability assay kit method. The H358-SOS2 KO cell strain was cultured in complete medium at 37 °C with 5% CO2. A sterilized 1% methylcellulose 3D medium was prepared in advance. Cells in the logarithmic growth phase were harvested and counted using a […]. The cell viability was determined by the trypan blue exclusion method, and the cell viability was kept 90% or more. The cell concentration was adjusted. The cells were uniformly mixed and left to stand. After no visible gas exists in the cell suspension, 180 µL of the cell suspension was added into a 96-well plate at 180 µL/well, and the total number of cells was 2000. The cells in the 96-well plate were incubated at 37 °C with 5% CO2. A diluted test compound was added to each well using a multi-channel pipette. […] The cell plate was placed at room temperature for 20 min to stabilize the luminescence signal. The luminescence value was read, and the data were collected. The data were analyzed using the GraphPad Prism 7.0 software. Dose-response curves were fit to the data using nonlinear S-curve regression, and the IC50 value was calculated from the curves.",
  "data": [
    {"smiles": "[2H][C@](C)(Nc1nc(C)nc2c(N3CCOCC3)c(=O)n(C3(CF)CC3)cc12)c1cccc(C(F)F)c1F", "note": "[Example 55, (R)-4-((1-(3-(difluoromethyl)-2-fluorophenyl)ethyl-1-d)amino)-6-(1-(fluoromethyl)cyclopropyl)-2-methyl-8-morpholinylpyrido[4,3-d]pyrimidine-7(6H)-one]", "values": [
      {"measurement": "IC50", "value": 79, "unit": "nM"}
    ]}
  ]
}
